What was measured:
[1] = target: Recombinant Human NF-kappaB-Inducing Kinase (NIK/MAP3K14) (Homo sapiens, UniProt Q99558); test: Inhibition of auto-phosphorylation of recombinant human NIK/MAP3K14 activity (AlphaScreen); type: biochemical; conditions: 5 μM ATP, 1 nM NIK, average if tested more than once
How it was run: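 GST-tagged NIK (1 nM) auto-phosphorylation with 5 μM ATP, 2 h at 25 °C, pH 7.5 Tris buffer, 0.7% DMSO; stopped with anti-phospho-IKK Ser176/180 antibody and read by AlphaScreen. Signal normalized to full-activity and no-enzyme/no-ATP controls; IC50 from sigmoidal fit of % inhibition vs log concentration.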

[2] = tested on: p-IKKa levels in L363 (NIK translocated multiple myeloma) cells; test: Effect of compounds on p-IKKa levels in L363 (NIK translocated multiple myeloma) cells (AlphaLISA SureFire Ultra p-IKKa Ser176/180); type: cell-based, human; conditions: Homo sapiens, L-363, p-IKKa levels in L363 cells; average if tested more than once; read-out: Assay 2 IC50
How it was run: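 L363 multiple myeloma cells, BAFF-stimulated overnight (250 ng/ml), then 6 h at 37 °C with compound (11-point 1:3 series, 0.3% DMSO) plus BAFF and 10 μM MG132. p-IKKa Ser176/180 read by AlphaLISA SureFire Ultra; IC50 from sigmoidal fit normalised to stimulated and unstimulated controls.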

Chain of Recombinant Human NF-kappaB-Inducing Kinase (NIK/MAP3K14) (Q99558 whole entry): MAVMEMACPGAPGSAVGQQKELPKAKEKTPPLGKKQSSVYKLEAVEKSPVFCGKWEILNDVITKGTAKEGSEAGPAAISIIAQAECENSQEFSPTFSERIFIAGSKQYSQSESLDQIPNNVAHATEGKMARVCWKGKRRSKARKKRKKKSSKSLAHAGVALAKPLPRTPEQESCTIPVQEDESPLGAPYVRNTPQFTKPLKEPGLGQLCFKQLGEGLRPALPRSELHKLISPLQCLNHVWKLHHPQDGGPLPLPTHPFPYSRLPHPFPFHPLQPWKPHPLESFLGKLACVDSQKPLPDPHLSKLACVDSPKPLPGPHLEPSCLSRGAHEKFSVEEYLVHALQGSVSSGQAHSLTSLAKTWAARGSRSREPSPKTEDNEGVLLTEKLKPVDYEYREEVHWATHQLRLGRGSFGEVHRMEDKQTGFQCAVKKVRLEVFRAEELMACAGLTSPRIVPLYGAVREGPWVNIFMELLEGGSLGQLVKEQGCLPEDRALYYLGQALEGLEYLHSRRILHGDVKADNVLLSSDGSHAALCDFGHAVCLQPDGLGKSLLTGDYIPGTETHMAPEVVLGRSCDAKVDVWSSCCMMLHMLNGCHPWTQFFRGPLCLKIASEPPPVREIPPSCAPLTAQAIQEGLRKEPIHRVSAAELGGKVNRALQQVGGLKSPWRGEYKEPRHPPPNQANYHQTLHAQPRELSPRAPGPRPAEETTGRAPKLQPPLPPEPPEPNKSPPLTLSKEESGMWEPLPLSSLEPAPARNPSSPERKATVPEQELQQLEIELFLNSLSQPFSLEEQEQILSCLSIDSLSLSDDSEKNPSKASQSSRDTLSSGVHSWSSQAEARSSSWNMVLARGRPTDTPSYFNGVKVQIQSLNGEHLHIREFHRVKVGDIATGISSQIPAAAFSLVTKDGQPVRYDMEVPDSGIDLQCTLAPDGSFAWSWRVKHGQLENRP

Structure (SMILES)	IC50 [1] [nM]	IC50 [2] [nM]
CN1CC[C@@](O)(c2cccc(-c3nc(-c4ccnc(Nc5ccn(C(C)(C)C)n5)n4)cs3)c2)C1=O [Example 285, (R)-3-(3-(4-(2-((1-(tert-butyl)-1H-pyrazol-3-yl)amino)pyrimidin-4-yl)thiazol-2-yl)phenyl)-3-hydroxy-1-methylpyrrolidin-2-one]	< 100	100 to 500
CN1CCC(O)(c2cncc(-c3csc(-c4ccnc(Nc5ccnn5C)n4)n3)c2)C1=O (single isomer, unassigned) [Example 46, (R)-3-Hydroxy-1-methyl-3-(5-(2-(2-((1-methyl-1H-pyrazol-5-yl)amino)pyrimidin-4-yl)thiazol-4-yl)pyridin-3-yl)pyrrolidin-2-one or (S)-3-hydroxy-1-methyl-3-(5-(2-(2-((1-methyl-1H-pyrazol-5-yl)amino)pyrimidin-4-yl)thiazol-4-yl)pyridin-3-yl)pyrrolidin-2-one]	< 100	< 100
Cc1ccc(CNc2nccc(-c3csc(-c4cccc([C@]5(O)CCN(C)C5=O)c4)n3)n2)cn1 [Example 204]	< 100	> 501
CN1CC[C@@](O)(c2cccc(-c3nc(-c4ccnc(NC5CCOCC5)n4)cs3)c2)C1=O [Example 181]	100 to 500	> 501
COc1ccnc(Nc2nccc(-c3csc(-c4cccc([C@]5(O)CCN(C)C5=O)c4)n3)n2)c1 [Example 162, (R)-3-Hydroxy-3-(3-(4-(2-((4-methoxypyridin-2-yl)amino)pyrimidin-4-yl)thiazol-2-yl)phenyl)-1-methylpyrrolidin-2-one]	< 100	> 501
COc1c(Nc2nccc(-c3csc(-c4cccc([C@]5(O)CCN(C)C5=O)c4)n3)n2)ccnc1C [Example 74, (R)-3-hydroxy-3-(3-(4-(2-((3-methoxy-2-methylpyridin-4-yl)amino)pyrimidin-4-yl)thiazol-2-yl)phenyl)-1-methylpyrrolidin-2-one]	100 to 500	> 501
COCCOc1nn(CC(F)F)cc1Nc1nccc(-c2csc(-c3cccc([C@]4(O)CCN(C)C4=O)c3)n2)n1 [Example 11, (R)-3-(3-(4-(2-((1-(2,2-Difluoroethyl)-3-(2-methoxyethoxy)-1H-pyrazol-4-yl)amino)pyrimidin-4-yl)thiazol-2-yl)phenyl)-3-hydroxy-1-methylpyrrolidin-2-one]	< 100	< 100
CN1CC[C@@](O)(c2cccc(-c3nc(-c4ccnc(NCCCNS(C)(=O)=O)n4)cs3)c2)C1=O [Example 231]	100 to 500	> 501
CCCn1ccc(Nc2nccc(-c3csc(-c4cccc([C@]5(O)CCN(C)C5=O)c4)n3)n2)n1 [Example 67, (R)-3-hydroxy-1-methyl-3-(3-(4-(2-((1-propyl-1H-pyrazol-3-yl)amino)pyrimidin-4-yl)thiazol-2-yl)phenyl)pyrrolidin-2-one]	< 100	100 to 500
CN1CC[C@@](O)(c2cccc(-c3nc(-c4nc(Nc5ccn(C)n5)ncc4F)cs3)c2)C1=O [Example 52, (R)-3-(3-(4-(5-Fluoro-2-((1-methyl-1H-pyrazol-3-yl)amino)pyrimidin-4-yl)thiazol-2-yl)phenyl)-3-hydroxy-1-methylpyrrolidin-2-one]	100 to 500	> 501
CN1CC[C@@](O)(c2cccc(-c3nc(-c4ccnc(Nc5cnn(C)c5)n4)cs3)c2)C1=O [Example 177]	< 100	< 100
CNC(=O)c1cc(Nc2nccc(-c3csc(-c4cccc([C@]5(O)CCN(C)C5=O)c4)n3)n2)n(CC(C)C)n1 [Example 13, (R)-5-((4-(2-(3-(3-Hydroxy-1-methyl-2-oxopyrrolidin-3-yl)phenyl)thiazol-4-yl)pyrimidin-2-yl)amino)-1-isobutyl-N-methyl-1H-pyrazole-3-carboxamide]	< 100	100 to 500
CN1CC[C@@](O)(c2cccc(-c3csc(-c4ccnc(Nc5ccn(C)n5)n4)n3)c2)C1=O [Example 3, (R)-3-hydroxy-1-methyl-3-(3-(2-(2-((1-methyl-1H-pyrazol-3-yl)amino)pyrimidin-4-yl)thiazol-4-yl)phenyl)pyrrolidin-2-one]	< 100	< 100
